Assays:
hAC1 = molecular target: T1, hAC1 (Homo sapiens, UniProt Q08828); assay: Cyclic AMP accumulation in HEK cells stably expressing AC1, stimulated with A23187 (HTRF); format: cell-based; conditions: HEK-AC1 cells; for inhibition at 30 µM: HEK293; for IC50: read-out: HEK-AC1 IC50
T1 construct: expressed in transfected cells
Procedure: The development and mechanistic characterization of AC1-selective small molecule inhibitors is believed to provide novel non-opioid weapons in the war on chronic pain. We identified our initial hits via screening 10,000 selected compounds from the Life Chemicals collection. The screen was carried out using HEK cells stably expressing AC1 (HEK-AC1) and cyclic AMP accumulation was stimulated using the Ca^2+ ionophore, A23187 to selectively activate AC1. Compounds with potential chemical liabilities and PAINs were removed from further evaluation (Baell and Holloway, J. Med. Chem. 2010, 53, 2719-2740).
(§1) Fresh powders of several robust inhibitors (>90% inhibition) were evaluated in multiple confirmation assays assessing the dose response relationship for inhibiting AC1 and AC8 activity. Confirmation assays used A23817 to selectively stimulate recombinant AC1 or AC8 in the HEK cell background (Cumbay and Watts (2001), J. Pharmacol Exp Ther 297:1201-1399). This approach takes advantage of one unique regulatory property of AC1 for the development of selective inhibitors. Both AC1 and AC8 are robustly activated by Ca^2+/CaM under a variety of conditions, whereas the effects of Ca^2+/CaM on AC3 are modest and conditional requiring activation by G proteins. Previous studies have identified unique Ca^2+/CaM binding domains as one possible site of interaction to achieve AC1 (vs. AC8) selectivity (Masada et al., 2012, Biochemistry 51:7917-7929).
(§2) The primary technology we employed to measure cAMP accumulation was a homogenous time-resolved fluorescence (HTRF) assay, the same technology utilized in the primary screen. […] This could be due to either 1) the chemical scaffolds are exquisitely selective toward the AC family of enzymes or 2) the library has not been screened against a sufficient number of targets. The answer is likely a combination of the two; nonetheless, the lack of biological data to date bodes well for these series and any potential off-target promiscuity.
(§3) Human embryonic kidney (HEK) cells stably expressing AC1, AC8, or AC1 with the MOR were cultured in Dulbecco's Modified Eagle Medium (Life Technologies, Grand Island, N.Y.) supplemented with 5% bovine calf serum (Hyclone, Logan, Utah), 5% fetal clone I (Hyclone), Antibiotic-Antimycotic (Life Technologies), and G418 (Invivogen, San Diego, Calif.) (HEK-AC1), or hygromycin B (Fisher Scientific, Pittsburgh, Pa.) (HEK-AC8), or G418 and puromycin (Sigma-Aldrich) (HEK-AC1/MOR). Chinese hamster ovary (CHO) cells expressing the MOR (CHO-MOR) in the PathHunter® β-Arrestin GPCR assay platform were purchased from DiscoveRx (Freemont, Calif.). Cells were grown in Ham's F12 media supplemented with 1 mM L-glutamine (Thermo Scientific, West Palm Beach, Fla.), 10% fetal bovine serum (Hyclone), 50 U/ml penicillin, 50 μg/ml streptomycin (Life Technologies), G418 and hygromycin B. Cells were grown and frozen as previously described (J. M. Conley, et al., J Vis Exp, e51218 (2014)).
(§4) Cyclic AMP accumulation was measured as previously described (Brust, et al., J. Pharmacol. Exp. Ther. 352, 480-493(2015)). Briefly, cryopreserved cells were thawed, resuspended in optiMEM (Life Technologies), and plated in white, flat bottom, low-volume, tissue culture-treated 384 well plates (PerkinElmer, Shelton, Conn.). Plates with cells were incubated in a 37° C. humidified incubator for 1 h. Inhibitors were added and plates were incubated at room temperature for 30 min followed by the addition of AC stimulants in the presence of 500 μM IBMX. Cells were incubated at room temperature for 1 h and cAMP accumulation was measured using Cisbio's cAMP kit (Cisbio Bioassays, Bedford, Mass.) according to the manufacturer's instructions.

hAC8 = molecular target: T2, hAC8 (Homo sapiens, UniProt P40145); assay: Cyclic AMP accumulation in HEK cells stably expressing AC8, stimulated with A23187 (HTRF); format: cell-based; conditions: HEK-AC8 cells; for inhibition at 30 µM: HEK293; for IC50: read-out: HEK-AC8 IC50
T2 construct: expressed in transfected cells
Procedure: as §1, §2, §3, §4

T1 sequence (Q08828 whole entry): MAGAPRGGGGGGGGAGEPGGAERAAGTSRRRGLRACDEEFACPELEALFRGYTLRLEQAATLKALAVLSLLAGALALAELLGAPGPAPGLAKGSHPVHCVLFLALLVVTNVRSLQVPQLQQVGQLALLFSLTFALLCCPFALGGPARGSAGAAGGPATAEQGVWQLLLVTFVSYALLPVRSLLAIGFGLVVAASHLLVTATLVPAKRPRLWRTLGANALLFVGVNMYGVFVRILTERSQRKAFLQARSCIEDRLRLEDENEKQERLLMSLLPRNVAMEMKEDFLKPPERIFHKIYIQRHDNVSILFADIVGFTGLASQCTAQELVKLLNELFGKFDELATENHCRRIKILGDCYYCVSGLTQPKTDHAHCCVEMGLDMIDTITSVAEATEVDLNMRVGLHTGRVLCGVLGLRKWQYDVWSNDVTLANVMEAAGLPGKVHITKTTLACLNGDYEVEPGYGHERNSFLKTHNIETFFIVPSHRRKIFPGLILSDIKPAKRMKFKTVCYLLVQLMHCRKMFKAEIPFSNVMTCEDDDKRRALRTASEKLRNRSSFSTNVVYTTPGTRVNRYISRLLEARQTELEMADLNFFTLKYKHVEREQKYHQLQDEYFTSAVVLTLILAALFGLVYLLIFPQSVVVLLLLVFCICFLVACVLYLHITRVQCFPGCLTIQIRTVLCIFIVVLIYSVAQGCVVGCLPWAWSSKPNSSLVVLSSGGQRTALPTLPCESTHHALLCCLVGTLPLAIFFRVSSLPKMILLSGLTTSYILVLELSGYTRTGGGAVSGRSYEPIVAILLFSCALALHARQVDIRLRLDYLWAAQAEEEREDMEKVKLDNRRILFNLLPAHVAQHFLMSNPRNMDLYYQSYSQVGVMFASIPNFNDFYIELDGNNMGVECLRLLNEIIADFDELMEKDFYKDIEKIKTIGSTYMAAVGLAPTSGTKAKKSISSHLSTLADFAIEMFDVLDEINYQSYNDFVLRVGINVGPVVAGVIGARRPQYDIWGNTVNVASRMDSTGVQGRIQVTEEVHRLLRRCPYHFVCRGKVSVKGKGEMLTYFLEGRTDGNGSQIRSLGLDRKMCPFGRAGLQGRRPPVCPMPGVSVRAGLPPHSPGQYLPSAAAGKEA
T2 sequence (P40145 whole entry): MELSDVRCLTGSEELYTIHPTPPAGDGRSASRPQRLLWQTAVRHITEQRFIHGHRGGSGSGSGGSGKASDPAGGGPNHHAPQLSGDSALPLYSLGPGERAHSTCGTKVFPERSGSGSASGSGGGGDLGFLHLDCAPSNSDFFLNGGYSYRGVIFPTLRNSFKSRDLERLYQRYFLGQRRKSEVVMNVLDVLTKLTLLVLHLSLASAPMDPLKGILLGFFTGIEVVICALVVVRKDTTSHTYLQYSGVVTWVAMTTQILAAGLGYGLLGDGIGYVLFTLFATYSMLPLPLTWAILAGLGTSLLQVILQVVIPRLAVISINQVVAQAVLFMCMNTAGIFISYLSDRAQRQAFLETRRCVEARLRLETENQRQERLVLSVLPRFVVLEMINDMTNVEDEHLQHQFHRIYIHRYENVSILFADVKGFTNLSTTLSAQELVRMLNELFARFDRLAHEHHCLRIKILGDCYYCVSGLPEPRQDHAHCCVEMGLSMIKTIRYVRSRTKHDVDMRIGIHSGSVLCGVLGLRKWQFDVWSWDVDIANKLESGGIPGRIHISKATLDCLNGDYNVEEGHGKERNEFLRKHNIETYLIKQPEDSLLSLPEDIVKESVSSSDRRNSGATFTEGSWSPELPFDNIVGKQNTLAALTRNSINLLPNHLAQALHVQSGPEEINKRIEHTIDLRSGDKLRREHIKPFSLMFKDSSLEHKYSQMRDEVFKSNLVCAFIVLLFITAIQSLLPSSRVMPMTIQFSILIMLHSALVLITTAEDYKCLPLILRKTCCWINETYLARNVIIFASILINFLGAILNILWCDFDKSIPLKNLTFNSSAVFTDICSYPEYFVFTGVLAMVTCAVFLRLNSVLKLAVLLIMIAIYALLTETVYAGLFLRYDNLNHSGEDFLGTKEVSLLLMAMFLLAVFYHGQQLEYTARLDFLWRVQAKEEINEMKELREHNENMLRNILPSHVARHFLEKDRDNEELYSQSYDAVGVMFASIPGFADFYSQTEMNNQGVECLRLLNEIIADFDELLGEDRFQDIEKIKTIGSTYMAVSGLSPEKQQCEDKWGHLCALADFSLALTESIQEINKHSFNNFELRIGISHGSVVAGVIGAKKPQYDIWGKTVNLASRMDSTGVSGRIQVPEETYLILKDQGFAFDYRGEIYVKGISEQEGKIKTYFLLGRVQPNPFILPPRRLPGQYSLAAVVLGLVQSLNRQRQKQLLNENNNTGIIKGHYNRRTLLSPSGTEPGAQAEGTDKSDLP

`COc1cc(C(=O)Nc2nnc(C3CCCCC3)o2)cc(C(F)(F)F)c1` [AC10070, N-(5-cyclohexyl-1,3,4-oxadiazol-2-yl)-3-methoxy-5-(trifluoromethyl)benzamide] showed an inhibition at 30 µM (hAC1) of 90 ± 2%, an IC50 (hAC1) of 4.8 ± 1 µM and an inhibition at 30 µM (hAC8) of 79 ± 11%. The IC50 (hAC8) was 9 ± 1 µM.

For `O=C(Nc1nnc(-c2ccc3c(c2)CCCC3)o1)c1ccccc1` [AC10002, N-(5-(5,6,7,8-tetrahydronaphthalen-2-yl)-1,3,4-oxadiazol-2-yl)benzamide], the inhibition at 30 µM (hAC1) was 100 ± 1%, the IC50 (hAC1) was 3.4 ± 1 µM and the inhibition at 30 µM (hAC8) was 80 ± 6%. It also gave an IC50 (hAC8) of 19.1 ± 5 µM.

`Cc1cc(C(=O)Nc2nnc(-c3ccc(F)cc3)o2)cc(C(F)(F)F)c1` [AC10065, N-(5-(4-fluorophenyl)-1,3,4-oxadiazol-2-yl)-3-methyl-5-(trifluoromethyl)benzamide] gave an inhibition at 30 µM (hAC1) of 99 ± 0.5%, an IC50 (hAC1) of 1.4 ± 0.2 µM and an inhibition at 30 µM (hAC8) of 89 ± 2%. For the same molecule, the IC50 (hAC8) was 4.1 ± 0.4 µM.

`Cc1ccc(C(=O)Nc2nnc(C3CCCCC3)o2)cc1C` [AC10024, N-(5-cyclohexyl-1,3,4-oxadiazol-2-yl)-3,4-dimethylbenzamide] showed an inhibition at 30 µM (hAC1) of 85 ± 4%, an IC50 (hAC1) of 8.1 ± 2 µM and an inhibition at 30 µM (hAC8) of 57 ± 7%. For the same molecule, the IC50 (hAC8) was 44 ± 6 µM.

In the case of `O=C(Nc1nnc(-c2ccc3c(c2)CCCC3)o1)c1ccc(Br)cc1` [AC10005, 4-bromo-N-(5-(5,6,7,8-tetrahydronaphthalen-2-yl)-1,3,4-oxadiazol-2-yl)benzamide], the inhibition at 30 µM (hAC1) is reported as 74 ± 4%, the IC50 (hAC1) is reported as 12.2 ± 3 µM and the inhibition at 30 µM (hAC8) is reported as 64 ± 13%. It also gave an IC50 (hAC8) of 27 ± 8 µM.

Work on `Cc1ccc(C(=O)Nc2nnc(-c3ccc4c(c3)CCCC4)o2)cc1` [AC10033, 4-methyl-N-(5-(5,6,7,8-tetrahydronaphthalen-2-yl)-1,3,4-oxadiazol-2-yl)benzamide] yielded an inhibition at 30 µM (hAC1) of 100 ± 1%, an IC50 (hAC1) of 3.4 ± 1 µM and an inhibition at 30 µM (hAC8) of 60 ± 8%. For the same molecule, the IC50 (hAC8) was 25 ± 6 µM.

With `O=C(Nc1nnc(-c2ccc3c(c2)CCCC3)o1)c1cccc(C(F)(F)F)c1` [AC10026, N-(5-(5,6,7,8-tetrahydronaphthalen-2-yl)-1,3,4-oxadiazol-2-yl)-3-(trifluoromethyl)benzamide] the inhibition at 30 µM (hAC1) was 100 ± 1%, the IC50 (hAC1) was 1.6 ± 0.2 µM and the inhibition at 30 µM (hAC8) was 82 ± 7%. The IC50 (hAC8) was 7.9 ± 3 µM.

With `O=C(Nc1nnc(-c2ccc(F)cc2)o1)c1cccc(C(F)(F)F)c1` [AC10028, N-(5-(4-fluorophenyl)-1,3,4-oxadiazol-2-yl)-3-(trifluoromethyl)benzamide] the inhibition at 30 µM (hAC1) was 99 ± 2%, the IC50 (hAC1) was 5 ± 1 µM and the inhibition at 30 µM (hAC8) was 58 ± 1%. For the same molecule, the IC50 (hAC8) was 29 ± 1 µM.

`CC(C)Oc1ccc(C(=O)Nc2nnc(C3CCCCC3)o2)cc1` [AC10025, N-(5-cyclohexyl-1,3,4-oxadiazol-2-yl)-4-isopropoxybenzamide] gave an inhibition at 30 µM (hAC1) of 86 ± 7%, an IC50 (hAC1) of 10.1 ± 1 µM and an inhibition at 30 µM (hAC8) of 35 ± 8%. It also gave an IC50 (hAC8) of 53 ± 21 µM.

In the case of `CSc1cccc(C(=O)Nc2nnc(-c3ccc4c(c3)CCCC4)o2)c1` [AC10013, 3-(methylthio)-N-(5-(5,6,7,8-tetrahydronaphthalen-2-yl)-1,3,4-oxadiazol-2-yl)benzamide], the inhibition at 30 µM (hAC1) is reported as 97 ± 4%, the IC50 (hAC1) is reported as 1.7 ± 0.7 µM and the inhibition at 30 µM (hAC8) is reported as 68 ± 5%. It also gave an IC50 (hAC8) of 9.4 ± 2 µM.

Molecule `O=C(Nc1nnc(C2CCCCC2)o1)c1cccc(C(F)(F)F)c1` [AC10021, N-(5-cyclohexyl-1,3,4-oxadiazol-2-yl)-3-(trifluoromethyl)benzamide] has an inhibition at 30 µM (hAC1) of 99 ± 1%, an IC50 (hAC1) of 6 ± 0.6 µM and an inhibition at 30 µM (hAC8) of 62 ± 8%. For the same molecule, the IC50 (hAC8) was 33 ± 8 µM.

Work on `O=C(Nc1nnc(-c2ccc3c(c2)CCCC3)o1)c1cccc(F)c1` [AC10059, 3-fluoro-N-(5-(5,6,7,8-tetrahydronaphthalen-2-yl)-1,3,4-oxadiazol-2-yl)benzamide] yielded an inhibition at 30 µM (hAC1) of 99 ± 0.4%, an IC50 (hAC1) of 1 ± 0.3 µM and an inhibition at 30 µM (hAC8) of 90 ± 1%. It also gave an IC50 (hAC8) of 4.2 ± 0.2 µM.

`O=C(Nc1nnc(C2CCCCC2)o1)c1ccc(Br)cc1` [AC10007, 4-bromo-N-(5-cyclohexyl-1,3,4-oxadiazol-2-yl)benzamide] gave an inhibition at 30 µM (hAC1) of 82 ± 7%, an IC50 (hAC1) of 8.6 ± 3 µM and an inhibition at 30 µM (hAC8) of 71 ± 11%. The IC50 (hAC8) was 25 ± 8 µM.
